What is called EC50 is the concentration giving half of the maximal effect. Read a high EC50 as a less potent agent.

The assay deals with T1, human parathyroid cell Ca^2+ receptor (hPCaR) (Homo sapiens, UniProt P41180).
T1 construct: expressed in transfected cells
T1 sequence (P41180 20-1078): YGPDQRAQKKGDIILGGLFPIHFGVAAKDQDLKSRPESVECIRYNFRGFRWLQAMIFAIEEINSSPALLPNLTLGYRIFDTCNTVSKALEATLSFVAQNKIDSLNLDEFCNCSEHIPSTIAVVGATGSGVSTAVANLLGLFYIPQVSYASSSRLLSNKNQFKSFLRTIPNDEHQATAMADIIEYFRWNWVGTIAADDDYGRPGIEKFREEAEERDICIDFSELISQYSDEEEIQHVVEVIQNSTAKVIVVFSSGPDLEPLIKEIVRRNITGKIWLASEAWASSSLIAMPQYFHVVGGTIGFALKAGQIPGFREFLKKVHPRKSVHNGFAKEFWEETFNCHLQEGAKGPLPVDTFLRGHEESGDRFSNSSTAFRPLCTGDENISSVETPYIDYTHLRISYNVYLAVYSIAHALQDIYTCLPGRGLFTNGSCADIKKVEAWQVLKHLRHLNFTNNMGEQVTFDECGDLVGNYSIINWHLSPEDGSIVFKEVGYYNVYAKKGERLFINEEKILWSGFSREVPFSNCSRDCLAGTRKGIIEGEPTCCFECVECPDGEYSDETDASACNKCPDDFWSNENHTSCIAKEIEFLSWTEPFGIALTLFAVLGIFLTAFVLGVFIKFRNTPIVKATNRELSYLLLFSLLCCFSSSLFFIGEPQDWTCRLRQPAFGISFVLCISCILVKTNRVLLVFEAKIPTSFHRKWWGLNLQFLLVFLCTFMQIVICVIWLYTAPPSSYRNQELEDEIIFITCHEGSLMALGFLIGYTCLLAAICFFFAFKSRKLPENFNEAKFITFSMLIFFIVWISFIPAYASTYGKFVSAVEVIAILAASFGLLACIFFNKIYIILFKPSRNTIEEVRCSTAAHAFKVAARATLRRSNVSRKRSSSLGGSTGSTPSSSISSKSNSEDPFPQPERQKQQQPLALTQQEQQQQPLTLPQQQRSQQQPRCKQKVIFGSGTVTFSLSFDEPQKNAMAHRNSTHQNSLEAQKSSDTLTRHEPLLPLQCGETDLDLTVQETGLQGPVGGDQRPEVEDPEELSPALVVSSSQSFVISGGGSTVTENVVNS
Description: [Ca2+]i measurement with fluo-3 in HEK 293 4.0-7 cells stably transfected with hPCaR. The format is cell-based. Particulars: fluo-3 fluorescence (485/530 nm), effect on [Ca^2+]i. An outline of the steps: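 Cytosolic [Ca2+] was read as fluo-3 fluorescence (ex 485/em 530 nm) after compound addition to washed cells. Cells were hPCaR-transfected HEK 293 clone 7, dye-loaded 30 min at 37 °C with 2 μM fluo-3 acetoxymethyl ester in HEPES-buffered saline pH 7.45 containing 1 mM CaCl2 and 0.5% BSA.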
For `COc1ccc(CN[C@H](C)c2cccc3ccccc23)cc1-c1ccc2oc(C)nc2c1` [(1R)-N-((3-(2-methyl-1,3-benzoxazol-5-yl)-4-(methyloxy)phenyl)methyl)-1-(1-naphthalenyl)ethanamine], the EC50 is not above 10 µM.
As for `COc1ccc(CN[C@H](C)c2ccccc2)cc1-c1ccc2oc(C)nc2c1` [(1R)-N-((3-(2-methyl-1,3-benzoxazol-5-yl)-4-(methyloxy)phenyl)methyl)-1-phenylethanamine], the EC50 is not above 10 µM.
`COc1ccc(CN[C@H](C)c2cccc3ccccc23)cc1-c1coc(C)n1` [(1R)-N-((3-(2-methyl-1,3-oxazol-4-yl)-4-(methyloxy)phenyl)methyl)-1-(1-naphthalenyl)ethanamine] returned a 50% effective concentration (EC50) not above 10 µM.
`COc1ccc(CN[C@H](C)c2ccccc2)cc1-c1coc(C)n1` [(1R)-N-((3-(2-methyl-1,3-oxazol-4-yl)-4-(methyloxy)phenyl)methyl)-1-phenylethanamine] returned an EC50 not above 10 µM.
`COc1ccc(CN[C@H](C)c2cccc3ccccc23)cc1-c1ccc2nn(C)cc2c1` [(1R)-N-((3-(2-methyl-2H-indazol-5-yl)-4-(methyloxy)phenyl)methyl)-1-(1-naphthalenyl)ethanamine] gave an EC50 not above 10 µM.
The molecule `COc1ccc(CN[C@H](C)c2cccc3ccccc23)cc1-c1ccoc1` [(1R)-N-((3-(3-furanyl)-4-(methyloxy)phenyl)methyl)-1-(1-naphthalenyl)ethanamine] registered an EC50 not above 10 µM.
As to `COc1cccc([C@@H](C)NCc2ccc(OC)c(-c3ccoc3)c2)c1` [(1R)-N-((3-(3-furanyl)-4-(methyloxy)phenyl)methyl)-1-(3-(methyloxy)phenyl)ethanamine], the EC50 was not above 10 µM.
In turn, `COc1ccc(CN[C@H](C)c2ccccc2)cc1-c1ccoc1` [(1R)-N-((3-(3-furanyl)-4-(methyloxy)phenyl)methyl)-1-phenylethanamine] showed an EC50 not above 10 µM.
The same measure for `COc1cccc([C@@H](C)NCc2cccc(-c3nc(C)no3)c2)c1` [(1R)-N-((3-(3-methyl-1,2,4-oxadiazol-5-yl)phenyl)methyl)-1-(3-(methyloxy)phenyl)ethanamine]: not above 10 µM.
As for `CCOc1ccc(-c2cc(CN[C@H](C)c3cccc4ccccc34)ccc2OC)cn1` [(1R)-N-((3-(6-(ethyloxy)-3-pyridinyl)-4-(methyloxy)phenyl)methyl)-1-(1-naphthalenyl)ethanamine], the EC50 is not above 10 µM.
In turn, `CCOc1ccc(-c2cc(CN[C@H](C)c3ccccc3)ccc2OC)cn1` [(1R)-N-((3-(6-(ethyloxy)-3-pyridinyl)-4-(methyloxy)phenyl)methyl)-1-phenylethanamine] returned an EC50 not above 10 µM.
In turn, `COc1ccc(-c2cccc(CN[C@H](C)c3cccc4ccccc34)c2)nn1` [(1R)-N-((3-(6-(methyloxy)-3-pyridazinyl)phenyl)methyl)-1-(1-naphthalenyl)ethanamine] showed an EC50 not above 10 µM.
The same measure for `COc1ccc(-c2cccc(CN[C@H](C)c3ccccc3)c2)nn1` [(1R)-N-((3-(6-(methyloxy)-3-pyridazinyl)phenyl)methyl)-1-phenylethanamine]: not above 10 µM; for `Cc1ccc(-c2cccc(CN[C@H](C)c3cccc4ccccc34)c2)cn1` [(1R)-N-((3-(6-methyl-3-pyridinyl)phenyl)methyl)-1-(1-naphthalenyl)ethanamine]: not above 10 µM.
Turning to `Cc1ccc(-c2cccc(CN[C@H](C)c3ccc4ccccc4c3)c2)cn1` [(1R)-N-((3-(6-methyl-3-pyridinyl)phenyl)methyl)-1-(2-naphthalenyl)ethanamine], the EC50 was not above 10 µM.
In the case of `Cc1ccc(-c2cccc(CN[C@H](C)c3ccccc3)c2)cn1` [(1R)-N-((3-(6-methyl-3-pyridinyl)phenyl)methyl)-1-phenylethanamine], the EC50 was not above 10 µM.
Regarding `COc1ccc(CN[C@H](C)c2cccc3ccccc23)cc1-c1ccc2nccn2c1` [(1R)-N-((3-imidazo[1,2-a]pyridin-6-yl-4-(methyloxy)phenyl)methyl)-1-(1-naphthalenyl)ethanamine], the EC50 is not above 10 µM.
Take `COc1ccc(CN[C@H](C)c2ccccc2)cc1-c1ccc2nccn2c1` [(1R)-N-((3-imidazo[1,2-a]pyridin-6-yl-4-(methyloxy)phenyl)methyl)-1-phenylethanamine]: the EC50 is not above 10 µM.
Molecule `Cc1ccc([C@@H](C)NCc2cccc(-c3ccc(C)c(C)c3)c2)cc1` [(1R)-N-((3′,4′-dimethyl-1,1′-biphenyl-3-yl)methyl)-1-(4-methylphenyl)ethanamine] showed an EC50 not above 10 µM.
`COc1cccc(-c2cc(CN[C@H](C)c3cccc4ccccc34)ccc2OC)c1` [(1R)-N-((3′,6-bis(methyloxy)-1,1′-biphenyl-3-yl)methyl)-1-(1-naphthalenyl)ethanamine] registered an EC50 not above 10 µM.
`COc1cccc(-c2cc(CN[C@H](C)c3cccc(OC)c3)ccc2OC)c1` [(1R)-N-((3′,6-bis(methyloxy)-1,1′-biphenyl-3-yl)methyl)-1-(3-(methyloxy)phenyl)ethanamine] returned an EC50 not above 10 µM.
In turn, `COc1cccc(-c2cccc(CN[C@H](C)c3cccc(OC)c3)c2)c1` [(1R)-N-((3′-(methyloxy)-1,1′-biphenyl-3-yl)methyl)-1-(3-(methyloxy)phenyl)ethanamine] came in with an EC50 not above 10 µM.
Next, `COc1ccc([C@@H](C)NCc2cccc(-c3cccc(OC)c3)c2)cc1` [(1R)-N-((3′-(methyloxy)-1,1′-biphenyl-3-yl)methyl)-1-(4-(methyloxy)phenyl)ethanamine]: not above 10 µM; `COc1cccc(-c2cccc(CN[C@H](C)c3ccc(C)cc3)c2)c1` [(1R)-N-((3′-(methyloxy)-1,1′-biphenyl-3-yl)methyl)-1-(4-methylphenyl)ethanamine]: not above 10 µM.
The molecule `COc1cccc(-c2cccc(CN[C@H](C)c3ccccc3)c2)c1` [(1R)-N-((3′-(methyloxy)-1,1′-biphenyl-3-yl)methyl)-1-phenylethanamine] returned an EC50 not above 10 µM.
Molecule `Cc1noc(C)c1-c1ccc(CN[C@H](C)c2cccc3ccccc23)cc1` [(1R)-N-((4-(3,5-dimethyl-4-isoxazolyl)phenyl)methyl)-1-(1-naphthalenyl)ethanamine] displayed an EC50 not above 10 µM.
Next, `C[C@@H](NCc1ccc(OC(F)F)c(-c2cccnc2)c1)c1cccc2ccccc12` [(1R)-N-((4-((difluoromethyl)oxy)-3-(3-pyridinyl)phenyl)methyl)-1-(1-naphthalenyl)ethanamine]: not above 10 µM; `COc1cccc([C@@H](C)NCc2ccc(OC(F)F)c(-c3cccnc3)c2)c1` [(1R)-N-((4-((difluoromethyl)oxy)-3-(3-pyridinyl)phenyl)methyl)-1-(3-(methyloxy)phenyl)ethanamine]: not above 10 µM.
Take `C[C@@H](NCc1ccc(OC(F)F)c(-c2cccnc2)c1)c1ccccc1` [(1R)-N-((4-((difluoromethyl)oxy)-3-(3-pyridinyl)phenyl)methyl)-1-phenylethanamine]: the EC50 was not above 10 µM.
The molecule `COc1ccc(CN[C@H](C)c2cccc3ccccc23)cc1-c1nccs1` [(1R)-N-((4-(methyloxy)-3-(1,3-thiazol-2-yl)phenyl)methyl)-1-(1-naphthalenyl)ethanamine] gave an EC50 not above 10 µM.
`COc1ccc(CN[C@H](C)c2ccc3ccccc3c2)cc1-c1nccs1` [(1R)-N-((4-(methyloxy)-3-(1,3-thiazol-2-yl)phenyl)methyl)-1-(2-naphthalenyl)ethanamine]: the EC50 was not above 10 µM.

The values above are taken from patent publication US6908935B2, “Calcium receptor modulating agents” (Amgen Inc., priority 2002, dated 2005).
